Measurements taken from patent US20230149409A1, “TREATMENT OF HUMAN PAPILLOMAVIRUS-ASSOCIATED CANCERS BY PD-L1 INHIBITORS” (priority 2021, published 2023).

Columns and labels:
[1] = test system: PD-L1 (U2OS/PD-L1 cells, Jurkat-PD-1-SHP cells); assay: Src Homology Region 2 Domain-containing Phosphatase (SHP) assay; format: cell-based; conditions: Homo sapiens; U2OS/PD-L1 + Jurkat-PD-1-SHP cells, 2 hours
Description: Example 1B. Src Homology Region 2 Domain-containing Phosphatase (SHP) Assay
U2OS/PD-L1 cells (DiscoveRx Corporation) were maintained in McCoy’s 5A medium with addition of 10% FBS, 0.25 µg/mL Puromycin. After removing the culture media, the cell medium was replaced with assay medium (RPMI1640 medium with 1% FBS). The U2OS/PD-L1 cells were then added in 384-well black clear bottom assay plate (CELLCOAT® Tissue Culture Plates, Greiner Bio-One) at 5000 cells per well in 20 uL assay medium. Test compounds were prepared by serial dilution in DMSO and 125 nL compound were first transferred to the 384 REMP plate well (Thermofisher) by ECHO liquid handler (Labcyte) followed with addition of 27.5 uL assay medium. 5 µL/well compounds in the assay medium were transferred to the cell plate with 0.05% DMSO in the final assay at 0.25 µM. Jurkat-PD-1-SHP cells (DiscoveRx Corporation) were cultured in RPMI1640 medium supplemented with 10% FBS, 250 µg/mL Hygromycin B, 500 µg/mL G418. After the replacement of culture media with assay medium, 5,000 Jurkat-PD-1-SHP cells in 20 µL were dispensed into each well. The assay plate was incubated at 37° C., 5% CO2 for 2 hours before 2.5 uL PathHunter reagent 1 (DiscoveRx Corporation) were added to each well. The assay plate was shaken for 1 min at 350 rpm in the dark followed with addition of 10 uL PathHunter reagent 2 (DiscoveRx Corporation). Chemiluminescent signal was recorded with TopCount reader (Perkin Elmer) after incubation at room temperature for 1 hour. Wells with DMSO were served as the positive controls and wells containing no cells were used as negative controls. IC50 determination was performed by fitting the curve of percentage of control activity versus the log of the compound concentration using the GraphPad Prism 6.0 software.

[2] = test system: PD-L1 (PD-L1 aAPC/CHO-K1 cells, Jurkat-PD-1-NFAT effector cells); assay: Nuclear Factor of Activated T-cells (NFAT) assay; format: cell-based; conditions: Cricetulus griseus; PD-L1 aAPC/CHO-K1 + Jurkat-PD-1-NFAT cells, 24 hours
Description: Nuclear Factor of Activated T-cells (NFAT) Assay
PD-L1 aAPC/CHO-K1cells (Promega) were maintained in F-12 medium with addition of 10% FBS, 200 µg/mL Hygromycin B, 250 µg/mL Geneticin (G418). […] The culture media of PD-L1 aAPC/CHO-K1 cells were first replaced with assay medium (RPMI1640 medium with 1% FBS). The PD-L1 aAPC/CHO-K1cells were then added in a white 384-well white clear bottom assay plate (CELLCOAT® Tissue Culture Plates, Greiner Bio-One) at 8000 per well in 10 uL assay medium. […] 5 uL compounds in the assay medium were transferred to the cells with 0.4% DMSO in the final assay at 2 µM. After removing the culture media, 10,000 Jurkat-PD-1-NFAT effector cells in 5 µL assay medium was dispensed into each well. The assay plate was incubated at 37° C., 5% CO2 for 24 hours. […] After 8 minutes incubation at room temperature, luminescence was read at with Pherastar microplate reader (BMG Labtech). The fold of induction (FOI) was calculated based on the ratio of luminescence normalized to the DMSO wells within each assay plate. The maximum percentage of induction was reported based on the ratio between the highest FOI of each compound and the maximum FOI of control compound within each assay plate. Wells with DMSO were served as the negative controls and wells containing control compound with the highest FOI were used as positive controls. EC50 determination was performed by fitting the curve of percent control activity versus the log of the compound concentration using the GraphPad Prism 6.0 software.

[3] = biological target: T1, PD-L1 on CD14+ cells in human whole blood (Homo sapiens, UniProt Q9NZQ7); assay: PD-L1 whole blood internalization assay; format: cell-based; conditions: 1 ng/mL interferon γ, CD14+ gated, 24 hour
T1 construct: Cells were gated on CD14+ (BD Biosciences) and PD-L1 expression determined by mean fluorescence intensity; host or cells: CD14+ cells in normal human whole blood, stimulated with human interferon gamma
T1 sequence (Q9NZQ7 19-290): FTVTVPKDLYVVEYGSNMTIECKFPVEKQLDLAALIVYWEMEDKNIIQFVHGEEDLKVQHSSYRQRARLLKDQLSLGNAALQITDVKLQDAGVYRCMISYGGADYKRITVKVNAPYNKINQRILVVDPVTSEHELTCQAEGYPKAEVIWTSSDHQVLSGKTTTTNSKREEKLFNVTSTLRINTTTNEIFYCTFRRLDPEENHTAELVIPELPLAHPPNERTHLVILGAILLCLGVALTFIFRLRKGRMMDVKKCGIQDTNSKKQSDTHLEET
Description: PD-L1 Whole Blood Internalization Assay
To determine PD-L1 internalization in human whole blood, normal human blood (Biological Specialty Corp, Colmar. PA) was incubated in the presence or absence of a concentration range of test compounds and 1 ng/mL human interferon γ (R&D Systems Inc. Minn. MN) in a 96 well “2 mL Assay Block” (Corning, Corning NY) for 18-20 hours at 37 °C. Blood was then stained with PD-L1 (MIH1, eBioscience; or BD Biosciences San Jose, CA), CD14 (Life Technologies, Carlsbad, CA) for 30 minutes in the dark at room temperature. Whole Blood/red cells were lysed/fixed (lysis buffer BD Biosciences) for 5 minutes at 37 °C in the dark and then centrifuged at 1600 RPM for 5 minutes. Cells were resuspended in Stain Buffer (BD Bioscience, San Jose, CA) and transferred into 96 well round bottom plates (Coming). Cells were gated on CD14+ (BD Biosciences) and PD-L1 expression determined by mean fluorescence intensity (MFI) (BD LSRFortessa® X-20). IC50 determination was performed by fitting the curve of compound percent inhibition versus the log of the compound concentration using the GraphPad Prism 7.0 software.

[4] = biological target: T2, PD-⅟PD-L1 (recombinant human PD-L1 protein and human PD-1 protein) (Homo sapiens, UniProt Q9NZQ7); assay: Homogeneous Time-Resolved Fluorescence (HTRF) PD-1/PD-L1 binding assay; conditions: 3 nM PD1, 10 nM PD-L1, 25° C., PBS pH 7.4
T2 construct: Recombinant human PD-L1 protein (19-238) with a His-tag at the C-terminus; purchased AcroBiosystems PD1-H5229 (PD-L1); PD1-H5257 (PD-1)
T2 sequence (Q9NZQ7 19-238): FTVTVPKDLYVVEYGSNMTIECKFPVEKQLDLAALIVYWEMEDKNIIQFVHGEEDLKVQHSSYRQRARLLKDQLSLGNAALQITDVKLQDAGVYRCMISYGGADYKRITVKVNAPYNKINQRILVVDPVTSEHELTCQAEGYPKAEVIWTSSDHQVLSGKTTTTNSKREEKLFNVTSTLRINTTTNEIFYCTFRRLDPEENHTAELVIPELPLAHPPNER
Description: Homogeneous Time-Resolved Fluorescence (HTRF) PD-⅟PD-L1 Binding Assay
The assays were conducted in a standard black 384-well polystyrene plate with a final volume of 20 uL. Inhibitors were first serially diluted in DMSO and then added to the plate wells before the addition of other reaction components. The final concentration of DMSO in the assay was 1%. The assays were carried out at 25° C. in the PBS buffer (pH 7.4) with 0.05% Tween-20 and 0.1% BSA. […] PD-L1 and PD-1 proteins were diluted in the assay buffer and 10 uL was added to the plate well. Plates were centrifuged and proteins were preincubated with inhibitors for 40 minutes. The incubation was followed by the addition of 10 uL of HTRF detection buffer supplemented with Europium cryptate-labeled anti-human IgG (PerkinElmer-AD0212) specific for Fc and anti-His antibody conjugated to SureLight®-Allophycocyanin (APC, PerkinElmer-AD0059H). […] Final concentrations in the assay were - 3 nM PD1, 10 nM PD-L1, 1 nM europium anti-human IgG and 20 nM anti-His-Allophycocyanin. IC50 determination was performed by fitting the curve of percent control activity versus the log of the inhibitor concentration using the GraphPad Prism 5.0 software.

| SMILES | IC50 [1] [nM] | IC50 [3] [nM] | IC50 [4] [nM] | EC50 [2] [nM] |
| --- | --- | --- | --- | --- |
| Cc1c(Nc2nccc3cc(CN4CC[C@H](O)C4)cnc23)cccc1-c1cccc(-c2nc3cc(CN4CC[C@H](C(=O)O)C4)cc(C#N)c3o2)c1C [Compound 3] | < 10 | < 500 |  | < 100 |
| Cc1c(Nc2nccc3cc(CN4CC[C@H](O)C4)cnc23)cccc1-c1cccc(-c2nc3cc(CN4CC[C@@H](C(=O)O)C4)cc(C#N)c3o2)c1C [Compound 4, (R)-1-((7-cyano-2-(3′-(3-(((S)-3-hydroxypyrrolidin-1-yl)methyl)-1,7-naphthyridin-8-ylamino)-2,2′-dimethylbiphenyl-3-yl)benzo[d]oxazol-5-yl)methyl)pyrrolidine-3-carboxylic acid] | < 100 | < 500 |  | < 100 |
| Cc1c(Nc2nccc3cc(CN4CC[C@@H](O)C4)cnc23)cccc1-c1cccc(-c2nc3cc(CN4CC[C@H](C(=O)O)C4)cc(C#N)c3o2)c1C [Compound 5] | < 10 | < 500 |  | < 100 |
| Cc1c(-c2nc3cc(CN4CCC(C(=O)O)CC4)cc(C#N)c3o2)cccc1-c1cccc(-c2nc3c(s2)CN(C(=O)CN(C)C)C3)c1C [Compound 6, 1-((7-cyano-2-(3′-(5-(2-(dimethylamino)acetyl)-5,6-dihydro-4H-pyrrolo [3,4-d]thiazol-2-yl)-2,2′-dimethylbiphenyl-3-yl)benzo[d]oxazol-5-yl)methyl)piperidine-4-carboxylic acid] | < 10 | < 100 |  | < 100 |
| Cc1c(Nc2nccc3cc(CN4CC[C@@](C)(O)C4)cnc23)cccc1-c1cccc(NC(=O)c2nc3c(n2C)CCN(C[C@H]2CC[C@@H](C(=O)O)CC2)C3)c1Cl [Compound 11, cis-4-((2-(2-chloro-3′-(3-(((R)-3-hydroay-3-methylpyrrolidin-1-yl)methyl)-1,7-naphthyridin-8-ylamino)-2′-methylbiphenyl-3-ylcarbamoyl)-1-methyl-6,7-dihydro-1H-imidazo[4,5-c]pyridin-5(4H)-yl)methyl)cyclohexanecarboxylic acid] | < 10 | < 100 |  | < 100 |
| CCN(C)CC(=O)N1Cc2nc(-c3cccc(-c4cccc(Nc5nccc6cc(CN7CC[C@@H](C(=O)O)C7)cnc56)c4Cl)c3C)sc2C1 [Compound 13, (R)-1-((8-((2-chloro-3′-(5-(N-ethyl-N-methylglycyl)-5,6-dihydro-4H-pyrrolo[3,4-d]thiazol-2-yl)-2′-methyl-[1,1′-biphenyl]-3-yl)amino)-1,7-naphthyridin-3-yl)methyl)pyrrolidine-3-carboxylic acid] | < 10 | < 100 |  | < 100 |
| Cc1c(-c2nc3c(s2)CN(C(=O)CN(C)C)C3)cccc1-c1cccc(-c2nc3c(s2)CN(C(=O)CN2CC[C@@H](O)C2)C3)c1C [Compound 14, (R)-2-(dimethylamino)-1-(2-(3′-(5-(2-(3-hydroaypyrrolidin-1-yl)acetyl)-5,6-dihydro-4H-pyrrolo[3,4-d]thiazol-2-yl)-2,2′-dimethylbipheiryl-3-yl)-4H-pyrrolo [3,4-d]thiazol-5(6H)-yl)ethanone] | < 100 |  |  | < 500 |
| Cc1c(Nc2nc(C(F)F)nc3cc(CN4CC[C@@H](O)C4)cnc23)cccc1-c1cccc(-c2nc3cc(CN4CC[C@@H](C(=O)O)C4)cc(C#N)c3o2)c1C [Compound 25, (R)-1-((7-cyano-2-(3′-(2-(difluoromethyl)-7-(((R)-3-hydroxypyrrolidin-1-yl)methyl)pyrido[3,2-d]pyrimidin-4-ylamino)-2,2′-dimethylbiphenyl-3-yl)benzo [d]oxazol-5-yl)methyl)pyrrolidine-3-carboxylic acid] |  | < 100 | < 10 | < 100 |

The next lines start with results.

| IC50 [1] [nM] | IC50 [3] [nM] | IC50 [4] [nM] | SMILES | EC50 [2] [nM] |
| --- | --- | --- | --- | --- |
|  | < 100 | < 10 | Cc1c(Nc2nc(C(F)F)nc3cc(CN4CC[C@@H](O)C4)cnc23)cccc1-c1cccc(-c2nc3cc(CN4CC[C@@](C)(C(=O)O)C4)cc(C#N)c3o2)c1C [Compound 26, (R)-1-((7-cyano-2-(3′-(2-(difluoromethyl)-7-(((R)-3-hydroxypyrrolidin-1-yl)methyl)pyrido[3,2-d]pyrimidin-4-ylamino)-2,2′-dimethylbipheiryl-3-yl)benzo[d]oxazol-5-yl)methyl)-3-methylpyrrolidine-3-carboxylic acid] | < 100 |
|  | < 100 | < 10 | Cc1c(Nc2nc(C(F)F)nc3cc(CN4CC[C@@](C)(O)C4)cnc23)cccc1-c1cccc(-c2nc3cc(CN4CCC(C(=O)O)CC4)cc(C#N)c3o2)c1C [Compound 27, (R)-1-((7-cyano-2-(3′-(2-(difluoromethyl)-7-((3-hydroxy-3-methylpyrrolidin-1-yl)methyl)pyrido[3,2-d]pyrimidin-4-ylamino)-2,2′-dimethylbipheiryl-3-yl)benzo[d]oxazol-5-yl)methyl)piperidine-4-caiboxylic acid] |  |
|  | < 100 | < 10 | Cc1c(Nc2nc(C(F)F)nc3cc(CN4CC[C@](C)(O)C4)cnc23)cccc1-c1cccc(-c2nc3cc(CN4CCC(C(=O)O)CC4)cc(C#N)c3o2)c1C [Compound 28, (S)-1-((7-cyano-2-(3′-(2-(difluoromethyl)-7-((3-hydroxy-3-methylpyrrolidin-1-yl)methyl)pyrido[3,2-d]pyrimidin-4-ylamino)-2,2′-dimethylbipheiryl-3-yl)benzo[d]oxazol-5-yl)methyl)pipendine-4-carboxylic acid] |  |
